± gives the standard deviation of the averaged measurements.
Experiments:
Conditions in all cases: 72 h
[1] = system: HepG2; assay: relative viability EC50 (midpoint between 100% and the lowest measured viability); higher = less toxic
[2] = system: U2OS; assay: as above
[3] = system: Vero E6; assay: as above
[4] = system: Caco-2; assay: as above
[5] = system: Calu-3; assay: as above
[6] = system: HepG2; assay: cell viability relative to DMSO; higher = less toxic
[7] = system: U2OS; assay: as above
[8] = system: Vero E6; assay: as above
[9] = system: Caco-2; assay: as above
[10] = system: Calu-3; assay: as above
[11] = system: HepG2; assay: drug sensitivity score (DSS) for viability; higher = more toxic; extreme values may be limits of the assay
[12] = system: U2OS; assay: as above
[13] = system: Vero E6; assay: as above
[14] = system: Caco-2; assay: as above
[15] = system: Calu-3; assay: as above

Structure (SMILES)	relative viability EC50 [1]	relative viability EC50 [2]	relative viability EC50 [3]	relative viability EC50 [4]	relative viability EC50 [5]	cell viability ([6]; 1 nM)	cell viability ([6]; 10 nM)	cell viability ([6]; 100 nM)	cell viability ([6]; 1000 nM)	cell viability ([6]; 10000 nM)	cell viability ([7]; 1 nM)	cell viability ([7]; 10 nM)	cell viability ([7]; 100 nM)	cell viability ([7]; 1000 nM)	cell viability ([7]; 10000 nM)	cell viability ([8]; 1 nM)	cell viability ([8]; 10 nM)	cell viability ([8]; 100 nM)	cell viability ([8]; 1000 nM)	cell viability ([8]; 10000 nM)	cell viability ([9]; 1 nM)	cell viability ([9]; 10 nM)	cell viability ([9]; 100 nM)	cell viability ([9]; 1000 nM)	cell viability ([9]; 10000 nM)	cell viability ([10]; 1 nM)	cell viability ([10]; 10 nM)	cell viability ([10]; 100 nM)	cell viability ([10]; 1000 nM)	cell viability ([10]; 10000 nM)	drug sensitivity score [11]	drug sensitivity score [12]	drug sensitivity score [13]	drug sensitivity score [14]	drug sensitivity score [15]
C[C@H](Oc1ccc(S(C)(=O)=O)cc1C(=O)N1CCN(c2ncc(C(F)(F)F)cc2F)CC1)C(F)(F)F [bitopertin]	> 10 µM	> 10 µM	> 10 µM	> 10 µM	> 10 µM	94.7%	95.1%	96.2%	104%	98.4%	98.9%	100%	101%	95.3%	101%	103%	95.6%	96.6%	100%	97.5%	100%	98.6%	92.5%	94.2%	91.1%	97.1%	99%	95.8%	97.8%	106%	0	0	0	0	0
COc1cc(Nc2nc3ccccc3nc2NS(=O)(=O)c2ccc(NC(=O)c3ccc(C)c(OC)c3)cc2)cc(OC)c1	> 10 µM	> 10 µM	> 10 µM	> 10 µM	> 10 µM	101%	83.8%	92.1%	99.1%	89.7%	97%	97.7%	97.1%	95.9%	103%	99.9%	95.9%	102%	95.7%	99.9%	95.4%	100%	96%	97.7%	103%	109%	85.9%	109%	94.4%	110%	0	0	0	0	0
NC(=O)c1ncn([C@@H]2O[C@H](CO)[C@@H](O)[C@H]2O)c1O [mizoribine]	> 10 µM	> 10 µM	> 10 µM	> 10 µM	> 10 µM	112%	100%	110%	96.2%	106%	101%	103%	99.6%	96.3%	99.1%	101%	103%	99.1%	97.8%	101%	93.8%	97.7%	94.7%	97.1%	97.6%	104%	101%	95.3%	102%	88.4%	0	0	0	0	0
COC(=O)C1=C(C)NC(C)=C(C(=O)OCCCN2CCC(c3ccccc3)(c3ccccc3)CC2)[C@@H]1c1cccc([N+](=O)[O-])c1 [dexniguldipine]	3.26 µM	2.61 µM	2.39 µM	2.01 µM	3.03 µM	102 ± 14%	101 ± 3.4%	94.7 ± 3.8%	102 ± 3%	16.8 ± 2%	102 ± 2.6%	102 ± 2.5%	100.8 ± 0.21%	94.3 ± 7.8%	20.8 ± 17%	94 ± 1.9%	99.7 ± 2.5%	95 ± 3.6%	94.35 ± 0.92%	39.5 ± 2.3%	99.8 ± 0.28%	100 ± 0.71%	97.7 ± 7.6%	91.4 ± 0.42%	40.8 ± 7.7%	103.7 ± 0.42%	94 ± 2.3%	104.1 ± 0.71%	99.2 ± 7.6%	15.8 ± 14%	4.5 ± 0.14	5.3 ± 2.3	4.2	4.65 ± 0.49	4.95 ± 1.8
c1ccc2sc(SN3CCOCC3)nc2c1 [N-oxydiethylenebenzothiazole-2-sulfenamide]	> 10 µM	> 10 µM	> 10 µM	> 10 µM	> 10 µM	101%	97.1%	98.9%	115%	111%	96.9%	105%	94.1%	99.1%	102%	97%	94.5%	99.6%	104%	112%	86.7%	92.6%	92.5%	92.5%	93.8%	104%	101%	97.4%	83.3%	110%	0	0	0	0	0
C[C@H]1NC(=O)NC1=O [5-methylhydantoin-(D)]	> 10 µM	> 10 µM	> 10 µM	> 10 µM	> 10 µM	93 ± 4.9%	100 ± 0.64%	93.3 ± 5.9%	98.1 ± 8.6%	106 ± 2.8%	97.85 ± 0.49%	100 ± 5%	98.8 ± 5.1%	98.2 ± 2.3%	100 ± 2.4%	97.1 ± 7.1%	102 ± 4.5%	96.4 ± 0.71%	99.4 ± 0.57%	100 ± 8%	97.5 ± 3.3%	94.4 ± 0.14%	104 ± 2.3%	95.3 ± 5.5%	101 ± 2.6%	95.5 ± 5.9%	99.6 ± 5%	94.5 ± 3.2%	102 ± 3%	101 ± 6.9%	0	0	0	0	0
CCOC(=O)Nc1nc2ccccc2[nH]1 [lobendazole]	> 10 µM	> 10 µM	> 10 µM	> 10 µM	> 10 µM	94.6%	113%	104%	111%	98.9%	97.1%	96.1%	98.2%	94.8%	99.7%	96.9%	101%	87.6%	103%	103%	97.9%	91.6%	96.4%	109%	95.5%	100%	106%	102%	98.4%	95.9%	0	0	0	0	0
CCCN(CCC)S(=O)(=O)c1ccc(C(=O)O)cc1 [probenecid]	> 10 µM	> 10 µM	> 10 µM	> 10 µM	> 10 µM	105%	91.6%	97%	95.4%	109%	97.5%	97.5%	95.2%	99.1%	95.9%	102%	104%	103%	99.3%	99.6%	95.8%	97.6%	88.8%	104%	93.3%	88.3%	106%	102%	118%	91.3%	0	0	0	0	0
NNc1nncc2ccccc12 [hydralazine]	> 10 µM	> 10 µM	> 10 µM	> 10 µM	> 10 µM	98.4%	106%	128%	98.5%	114%	98.4%	102%	99.4%	101%	95.8%	98.7%	101%	105%	105%	99.3%	104%	105%	91.4%	108%	88.3%	95%	102%	89%	85.3%	85%	0	0	0	0	2.2
CC(CC(C(N)=O)(c1ccccc1)c1ccccc1)N(C)C (stereo not given) [aminopentamide]	> 10 µM	> 10 µM	> 10 µM	> 10 µM	> 10 µM	100%	99.6%	95.2%	103%	104%	95.8%	94.9%	101%	101%	101%	95.9%	96.1%	91.5%	98.3%	104%	95.3%	90.2%	97.1%	92.8%	98%	110%	97.8%	104%	92.2%	98.9%	0	0	0	0	0
O=C(NCC1CCOCC1)c1cnc(Nc2ccc(Cl)cc2Cl)nc1C(F)(F)F	> 10 µM	> 10 µM	> 10 µM	> 10 µM	> 10 µM	105%	102%	102%	99.2%	112%	96.5%	102%	96%	95.5%	93.2%	99.8%	91.9%	94.8%	93.1%	98.9%	104%	99.3%	113%	104%	101%	104%	107%	100%	99.4%	105%	0	0	0	0	0
Cc1onc(-c2ccccc2)c1C(=O)N[C@@H]1C(=O)N2[C@@H]1SC(C)(C)[C@@H]2C(=O)O [oxacillin]	> 10 µM	> 10 µM	> 10 µM	> 10 µM	> 10 µM	89.9%	102%	91.3%	114%	108%	100%	98.7%	98%	98.9%	108%	99.4%	87.2%	102%	93.9%	94%	92.9%	93.3%	98.1%	85.2%	116%	92.6%	104%	102%	99.1%	96.2%	0	0	0	0	0
N#C/C(=C1/SCC(c2ccccc2Cl)S1)n1ccnc1 (stereo not given) [lanoconazole]	> 10 µM	> 10 µM	> 10 µM	> 10 µM	> 10 µM	93.3%	95.5%	99.9%	97.6%	81.6%	99.1%	99.9%	97.4%	96.8%	89.8%	100%	99.1%	95.2%	92.5%	94.9%	96.6%	106%	99.7%	101%	102%	96.9%	103%	103%	108%	86.6%	0.8	0	0	0	0
CCN(CC)CCCCC1CCN(CC(=O)N2c3ccccc3C(=O)Nc3cccnc32)CC1 [AQ-RA741]	> 10 µM	> 10 µM	> 10 µM	> 10 µM	> 10 µM	100%	102%	102%	101%	90.1%	97.1%	96.3%	105%	98.6%	104%	102%	106%	96.7%	97.8%	95.9%	101%	90.9%	98.2%	86.4%	97.1%	105%	94.7%	108%	109%	96.4%	0	0	0	0	0

From the supplement of paper PMC13380429
